For one assay, the target named is PIM1 (Homo sapiens (Human), UniProt P11309). In words: biochemical. To be noted: 20 pM PIM1, 1 μM FAM-peptide, 10 μM ATP, 90 minutes at room temperature; read-out: PIM1 LC3K (KI). The class given is biochemical.
A further assay relates to BaF3 parental cells. In words: In vitro cell proliferation, BaF3 parental line + IL3.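 Also: BaF3 parental cells are murine IL-3 dependent pro-B cells grown with 2 ng/mL mIL-3, 384-well format, viability read by luminescence.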 The class given is cell-based, murine. To be noted: Mus musculus, BaF3, BaF3 parental, mIL-3, incubated overnight, CELL TITER GLO; read-out: Prolif BaF3 IL3 (IC50). For orientation: Cellular ATP, detected with luciferase, serves as a proxy for viable cell number.
The test system of the next assay is BaF3 PIM1 cells. In words: In vitro cell proliferation, BaF3 transfected with PIM1.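 Also: murine IL-3-dependent pro-B BaF3 cells transfected with PIM1, compound exposure overnight at 37 °C under 5% CO2, viability read as luminescence.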 The class given is cell-based, murine. As to conditions: Mus musculus.
Assay [1] concerns MM1.S (multiple myeloma) cells. Description: In vitro cell proliferation, MM1.S multiple myeloma cells.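 Also: cells cultured in RPMI with 10% FBS and 2 mM L-Glutamine, seeded in 384-well plates, exposed to compound, cell viability measured by luminescence after CellTiter-Glo addition.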 The format is cell-based. To be noted: Homo sapiens, MM1.S, 72 h, MM1.S cells, 72 hours, CELL TITER GLO; read-out: Prolif MM1S ATP (EC50).
Where [2] appears, read: BaF3, read-out: Prolif BaF3 PIM1 (IC50), BaF3 PIM1 cells, incubated overnight, CELL TITER GLO.
Setting [3] is: BaF3 PIM1 cells, incubated overnight, CELL TITER GLO, read-out: Prolif BaF3 PIM1 (IC50).

Where two headings read alike, the source gives them in different places.

A word on the Ki: it is a dissociation constant, usually derived from enzyme kinetics or from competition with a known ligand. As a reminder, the IC50 is the concentration at which inhibition is half-maximal. As usually defined, the EC50 is the concentration needed to bring the measured effect to its halfway point.

PIM1, sequence (P11309 whole entry): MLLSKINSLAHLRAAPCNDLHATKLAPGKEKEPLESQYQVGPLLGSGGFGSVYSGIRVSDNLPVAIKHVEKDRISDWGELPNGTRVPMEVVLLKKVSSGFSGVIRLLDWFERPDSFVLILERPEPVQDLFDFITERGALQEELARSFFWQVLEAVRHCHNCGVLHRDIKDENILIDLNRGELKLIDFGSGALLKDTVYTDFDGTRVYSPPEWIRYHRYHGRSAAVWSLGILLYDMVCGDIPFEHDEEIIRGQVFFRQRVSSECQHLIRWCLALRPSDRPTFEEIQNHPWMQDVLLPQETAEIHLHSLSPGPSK
Procedure for BaF3 PIM1 cells: BaF3 parental line was obtained from the DSMZ repository. […] Media for BaF3 parental line contained RPMI, 10% FBS, 2 mM L-Glutamine, 2 ng/mL mIL-3. Media for BaF3 PIM1 & 2 lines contained RPMI, 10% FBS, 2 mM L-Glutamine, 250 μg/mL. Media for MM1.S (multiple myeloma cells) line contained RPMI, 10% FBS, 2 mM L-Glutamine.
BaF3, a murine interleukin-3 dependent pro-B cell line, parental cells, BaF3 PIM1 cells, BaF3 PIM2 cells, and MM1.S (multiple myeloma) cells were seeded at 2 k/well, 5 k/well, 5 k/well, and 10 k/well respectively, in a 384-well plate, at 45 μL/well. Test compound was added at 5 μL/well. BaF3 cells (parental and transfected) were incubated overnight, while MM1.S cells were incubated for 72 hours at 37° C., 5% CO2. CELL TITER GLO® Reagent (Promega) was added at 50 μL/well, the plates were incubated for 30 minutes, and their luminescence read on an HT Analyst. IC50/EC50 values for the test compound were calculated.

With `Cn1ncc(NC(=O)c2csc(-c3c(F)cccc3F)n2)c1[C@H]1CC[C@H](N)[C@H](O)CO1` [Example 351, N-(5-((2R,5S,6S)-5-amino-6-hydroxyoxepan-2-yl)-1-methyl-1H-pyrazol-4-yl)-2-(2,6-difluorophenyl)thiazole-4-carboxamide], the Ki on PIM1 came to 0.076 nM. For the same compound, the IC50 in the assay on BaF3 parental cells was found to be 9900 nM; in the assay with BaF3 PIM1 cells (setting [2]), 621 nM. Further, the EC50 in assay [1] is 520 nM.
On to `Cn1ncc(NC(=O)c2csc(-c3c(F)ccc(S(C)(=O)=O)c3F)n2)c1[C@@H]1CC[C@@H](N)[C@H](F)CO1` [Example 360, N-[5-[(2S,5R,6S)-5-amino-6-fluoro-oxepan-2-yl]-1-methyl-pyrazol-4-yl]-2-(2,6-difluoro-3-methylsulfonyl-phenyl)thiazole-4-carboxamide], for which the inhibitory constant (Ki) on PIM1 amounted to 1.85 nM. In addition, the results for the IC50 in the assay with BaF3 parental cells and in the assay with BaF3 PIM1 cells (setting [2]) were 16500 nM and 15200 nM, respectively. In addition, the EC50 in assay [1] was determined as 9400 nM.
The like results for `Cn1ncc(NC(=O)c2csc(-c3c(F)cccc3F)n2)c1[C@@H]1CC[C@@H](N)[C@H](F)CO1` [Example 321, N-(5-((2S,5R,6S)-5-amino-6-fluorooxepan-2-yl)-1-methyl-1H-pyrazol-4-yl)-2-(2,6-difluorophenyl)thiazole-4-carboxamide] were, in that order, 0.0137 nM, 4400 nM, 50.6 nM and 385 nM.
For the compound `Cn1ncc(NC(=O)c2nc(-c3c(F)cccc3F)sc2N)c1C1CC[C@@H](N)[C@@H](F)CO1` (stereo partly drawn) [Example 129, 5-amino-N-(5-((5R,6R)-5-amino-6-fluorooxepan-2-yl)-1-methyl-1H-pyrazol-4-yl)-2-(2,6-difluorophenyl)thiazole-4-carboxamide], the Ki on PIM1 is 0.006 nM. Also, the IC50 came out at 6900 nM in the assay on BaF3 parental cells and 24.7 nM in the assay with BaF3 PIM1 cells (setting [2]). For the same compound, in assay [1], the EC50 is 109 nM.
For `CC(C)C(=O)c1cc(F)c(-c2nc(C(=O)Nc3cnn(C)c3[C@@H]3CC[C@@H](N)[C@H](F)CO3)cs2)c(F)c1` [Example 367, N-(5-((2S,5R,6S)-5-amino-6-fluorooxepan-2-yl)-1-methyl-1H-pyrazol-4-yl)-2-(2,6-difluoro-4-isobutyrylphenyl)thiazole-4-carboxamide] the same measures were 0.061 nM, 24000 nM, 245 nM and 5400 nM.
The like results for `Cn1ncc(NC(=O)c2csc(-c3c(F)ccc(C4CC4)c3F)n2)c1[C@@H]1CC[C@@H](N)[C@H](F)CO1` [Example 363, N-(5-((2S,5R,6S)-5-amino-6-fluorooxepan-2-yl)-1-methyl-1H-pyrazol-4-yl)-2-(3-cyclopropyl-2,6-difluorophenyl)thiazole-4-carboxamide] were, in that order, 0.034 nM, 4500 nM, 294 nM and 937 nM.
For `Cn1ncc(NC(=O)c2csc(-c3c(F)cc([C@H]4CCCO4)cc3F)n2)c1[C@@H]1CC[C@@H](N)[C@H](F)CO1` (single isomer, unassigned) [Example 380] the same measures were 0.071 nM, 12200 nM, 37.2 nM and 1700 nM.
On to `Cn1ncc(NC(=O)c2csc(-c3cc(=O)n(C)cc3F)n2)c1[C@@H]1CC[C@@H](N)[C@H](F)CO1` [Example 387, N-(5-((2S,5R,6S)-5-amino-6-fluorooxepan-2-yl)-1-methyl-1H-pyrazol-4-yl)-2-(5-fluoro-1-methyl-2-oxo-1,2-dihydropyridin-4-yl)thiazole-4-carboxamide], for which, at PIM1, the Ki is 0.954 nM. The results for the IC50 in the assay with BaF3 parental cells and in the assay on BaF3 PIM1 cells (setting [2]) were 8200 nM and 3200 nM, respectively. Moreover, the EC50 in assay [1] was determined as 2000 nM.
For `COc1ccc(F)c(-c2nc(C(=O)Nc3cnn(C)c3[C@@H]3CC[C@@H](N)[C@H](OC)CO3)cs2)c1F` [Example 368, N-(5-((2S,5R,6S)-5-amino-6-methoxyoxepan-2-yl)-1-methyl-1H-pyrazol-4-yl)-2-(2,6-difluoro-3-methoxyphenyl)thiazole-4-carboxamide] the same measures were 0.03 nM, 1900 nM, 100 nM and 2400 nM.
For `CO[C@@H]1CO[C@H](c2c(NC(=O)c3csc(-c4c(F)cccc4F)n3)cnn2C)CC[C@H]1N` [Example 347, N-(5-((2S,5R,6S)-5-amino-6-methoxyoxepan-2-yl)-1-methyl-1H-pyrazol-4-yl)-2-(2,6-difluorophenyl)thiazole-4-carboxamide] the same measures were 0.014 nM, 5000 nM, 157 nM and 3300 nM.
The like results for `Cn1ncc(NC(=O)c2csc(-c3n[nH]c4ccccc34)n2)c1[C@@H]1CC[C@@H](N)[C@H](F)CO1` [Example 381, N-(5-((2S,5R,6S)-5-amino-6-fluorooxepan-2-yl)-1-methyl-1H-pyrazol-4-yl)-2-(1H-indazol-3-yl)thiazole-4-carboxamide] were, in that order, 0.022 nM, 5800 nM, 79.4 nM and 640 nM.
For `Cn1ncc(NC(=O)c2nc(-c3c(F)cccc3F)sc2N)c1[C@H]1CC[C@@H](N)C(F)CO1` (stereo in doubt) [Example 148, 5-Amino-N-[5-[5-amino-6-fluoro-oxepan-2-yl]-1-methyl-pyrazol-4-yl]-2-(2,6-difluorophenyl)thiazole-4-carboxamide], the Ki on PIM1 amounted to 0.079 nM. The concentration for half-maximal inhibition (IC50) turned out to be 25000 nM in the assay on BaF3 parental cells and 1600 nM with BaF3 PIM1 cells (setting [2]). In assay [1], the EC50 came to 7700 nM.
For `Cc1[nH]nc(-c2nc(C(=O)Nc3cnn(C)c3[C@@H]3CC[C@@H](N)[C@H](F)CO3)cs2)c1C` [Example 372, N-(5-((2S,5R,6S)-5-amino-6-fluorooxepan-2-yl)-1-methyl-1H-pyrazol-4-yl)-2-(4,5-dimethyl-1H-pyrazol-3-yl)thiazole-4-carboxamide] the same measures were 0.064 nM, 20500 nM, 602 nM and 1600 nM.
Turning to `COC1(c2cc(F)c(-c3nc(C(=O)Nc4cnn(C)c4[C@@H]4CC[C@@H](N)[C@H](F)CO4)cs3)c(F)c2)COC1` [Example 339, N-(5-((2S,5R,6S)-5-amino-6-fluorooxepan-2-yl)-1-methyl-1H-pyrazol-4-yl)-2-(2,6-difluoro-4-(3-methoxyoxetan-3-yl)phenyl)thiazole-4-carboxamide], on PIM1, the Ki is 0.014 nM. The IC50 in the assay on BaF3 parental cells was over 25000 nM; in the assay with BaF3 PIM1 cells (setting [2]), 52.2 nM. Besides, in assay [1], the concentration giving a half-maximal response (EC50) was determined as 1900 nM.
The like results for `Cn1ncc(NC(=O)c2csc(-c3c(F)cc(F)cc3F)n2)c1[C@@H]1CC[C@@H](N)[C@H](F)CO1` [Example 364, N-(5-((2S,5R,6S)-5-amino-6-fluorooxepan-2-yl)-1-methyl-1H-pyrazol-4-yl)-2-(2,4,6-trifluorophenyl)thiazole-4-carboxamide] were, in that order, 0.039 nM, 20200 nM, 208 nM and 1100 nM.
Regarding `Cn1ncc(NC(=O)c2nc(-c3ccccc3F)sc2N)c1[C@@H]1CC[C@@H](N)[C@H](F)CO1` [Example 317, 5-amino-N-(5-((2S,5R,6S)-5-amino-6-fluorooxepan-2-yl)-1-methyl-1H-pyrazol-4-yl)-2-(2-fluorophenyl)thiazole-4-carboxamide], at PIM1, the Ki amounted to 0.00509 nM. Further, the IC50 turned out to be 7900 nM in the assay with BaF3 parental cells and 15.2 nM in the assay with BaF3 PIM1 cells (setting [2]). In addition, in assay [1], the EC50 amounted to 34.5 nM.
In the case of `C[C@@H]1O[C@H](c2c(NC(=O)c3ccc(F)c(-c4c(F)cccc4F)n3)cnn2C)C[C@H](N)[C@@]1(C)O` [Example 344, N-(5-((2S,4S,5R,6S)-4-amino-5-hydroxy-5,6-dimethyltetrahydro-2H-pyran-2-yl)-1-methyl-1H-pyrazol-4-yl)-6-(2,6-difluorophenyl)-5-fluoropicolinamide], the IC50 in the assay with BaF3 parental cells came out at 14000 nM; in the assay with BaF3 PIM1 cells (setting [3]) it was 9000 nM. The EC50 in assay [1] was found to be 9800 nM.
In the case of `C[C@@H]1O[C@H](c2c(NC(=O)c3nc(-c4c(F)cccc4F)sc3N)cnn2C)C[C@H](N)[C@@]1(C)O` [Example 346, 5-amino-N-(5-((2S,4S,5R,6S)-4-amino-5-hydroxy-5,6-dimethyltetrahydro-2H-pyran-2-yl)-1-methyl-1H-pyrazol-4-yl)-2-(2,6-difluorophenyl)thiazole-4-carboxamide], the IC50 in the assay with BaF3 parental cells is over 25000 nM; in the assay with BaF3 PIM1 cells (setting [3]), 517 nM. The EC50 in assay [1] came out at 4300 nM.
For `C[C@H]1O[C@@H](c2c(NC(=O)c3nc(-c4c(F)cccc4F)sc3N)cnn2C)C[C@@H](N)[C@]1(C)O` (single isomer, unassigned) [Example 345] the same measures were over 25000 nM, 6800 nM and over 25000 nM.
With `Cn1ncc(NC(=O)c2nc(-c3c(Cl)cccc3C(F)(F)F)sc2N)c1[C@@H]1CC[C@@H](N)[C@H](F)CO1` [Example 329, 5-amino-N-(5-((2S,5R,6S)-5-amino-6-fluorooxepan-2-yl)-1-methyl-1H-pyrazol-4-yl)-2-(2-chloro-6-(trifluoromethyl)phenyl)thiazole-4-carboxamide], the IC50 with BaF3 parental cells turned out to be 2400 nM; in the assay with BaF3 PIM1 cells (setting [2]), 348 nM. The EC50 in assay [1] was determined as 1700 nM.
Take `C[C@H]1O[C@@H](c2c(NC(=O)c3ccc(F)c(-c4c(F)cccc4F)n3)cnn2C)C[C@@H](N)[C@]1(C)O` (single isomer, unassigned) [Example 343]: the figures for the IC50 with BaF3 parental cells and with BaF3 PIM1 cells (setting [3]) were 12800 nM and 342 nM, respectively. Moreover, the EC50 in assay [1] was 781 nM.
